# Measurements from patent US4705799A, “Aminomethyl oxooxazolidinyl benzenes useful as antibacterial agents” (E. I. Du Pont de Nemours and Company, priority 1985, dated 1987).
# Structures can show the parent of a compound that is named as a salt. Where two headings read alike, the source gives them in different places.
# Legend:
# Escherichia coli = test: In vitro broth dilution minimal inhibitory concentration (standard microdilution method); assay type: cell-based; conditions: Escherichia coli, read-out: Microdilution Broth MIC
# Staphylococcus aureus [1] = test: In vivo efficacy of orally administered compounds in mouse intraperitoneal infections; conditions: Staphylococcus aureus, po, 168 h, read-out: ED50 (50 percent effective dose)
# Description: (§1) Determinations of in vivo efficacy are performed by inoculating mice intraperitoneally with cultures of the infecting organism diluted to produce 90-100% mortality in control animals within twenty-four hours. The diluents used were trypticase soy broth for E. coli and 5% aqueous hog gastric mucin for Staphylococcus aureus infections. The compounds are dissolved or suspended in 0.25% aqueous Methocel® (Methocel®: Hydroxypropyl Methylcellulose E15 Premium, Dow Chemical Company) for oral administration or sterile distilled water containing 5% dimethylsulfoxide (Fisher Scientific Company, Fairlawn, N.J.) for subcutaneous administration. The mice are dosed at the time of infection and again at four hours post-infection. Mortality is recorded daily until test termination seven days post infection and the 50 percent effective dose, ED50, is calculated by the Reed-Muench method (Reed, L. G. and Muench, H., "A simple method of estimating fifty percent end points," American Journal of Hygiene, 27, 493-497 (1938).
# [2] = system: Staphylococcus epidermidis; test: In vitro broth dilution minimal inhibitory concentration (standard microdilution method); assay type: cell-based; conditions: 24 h, read-out: Microdilution Broth MIC
# Staphylococcus aureus [3] = test: In vivo efficacy of compounds administered subcutaneously in mouse intraperitoneal infections; conditions: sc, 168 h; mouse i.p. Staphylococcus aureus infection; subcutaneous; dosed at infection and 4 h post-infection; 7 days; read-out: ED50 (50 percent effective dose)
# Description: as §1
# [4] = mouse i.p. Staphylococcus aureus infection, oral, dosed at infection and 4 h post-infection, 7 days
Compound,"MIC (Escherichia coli; Mueller-Hinton broth, 24-hour)","MIC ([2]; Mueller-Hinton broth, 24-hour)",ED50 (Staphylococcus aureus [1]; [4]),ED50 (Staphylococcus aureus [3]),MIC (Escherichia coli; 24 h),ED50 (Staphylococcus aureus [1]),MIC [2]
CSc1ccc(N2CC(CNC(=O)C3CC3)OC2=O)cc1 (centres unmarked) [Example 71],> 200 µg/mL,50 µg/mL,> 120 mg/kg,69.3 mg/kg,,,
COC(=O)NCC1CN(c2ccc(S(N)(=O)=O)cc2)C(=O)O1 (centres unmarked) [Example 45],> 200 µg/mL,37.5 µg/mL,> 120 mg/kg,9.6 mg/kg,,,
CC(=O)NCC1CN(c2ccc(C(F)(F)C(F)(F)F)cc2)C(=O)O1 (centres unmarked) [Example 108],> 128 µg/mL,2 µg/mL,8.4 mg/kg,20.4 mg/kg,,,
"CC(=O)NCC1CN(c2ccc(CBr)cc2)C(=O)O1 (single isomer, unassigned) [Example 166, (l)-N-[3-[4-(Bromomethyl)phenyl]-2-oxooxazolidin-5-ylmethyl]acetamide]",> 128 µg/mL,64 µg/mL,,,,,
CC(=O)NCC1CN(c2ccc(C(C)(O)CO)cc2)C(=O)O1 (centres unmarked) [Example 102],> 128 µg/mL,16 µg/mL,24 mg/kg,9 mg/kg,,,
CCOC(OCC)C(=O)NCC1CN(c2ccc(S(C)(=O)=O)cc2)C(=O)O1 (centres unmarked) [Example 76],> 200 µg/mL,> 200 µg/mL,58 mg/kg,,,,
"CC(=O)NCC1CN(c2ccc(C(=O)COC(C)=O)cc2)C(=O)O1 (single isomer, unassigned) [Example 183, (l)-N-[3-[4-(Acetyloxyacetyl)phenyl]-2-oxo-5-oxazolidinylmethyl]acetamide]",64 µg/mL,0.5 µg/mL,9.1 mg/kg,3.4 mg/kg,,,
COC(OC)C(=O)NCC1CN(c2ccc(SC)cc2)C(=O)O1 (centres unmarked) [Example 73],> 200 µg/mL,> 200 µg/mL,59.5 mg/kg,,,,
"CC(=O)NCC1CN(c2ccc(C=O)cc2)C(=O)O1 (single isomer, unassigned) [Example 185, (l)-N-[3-(4-Formylphenyl)-2-oxo-5-oxazolidinylmethyl]acetamide]",> 128 µg/mL,> 128 µg/mL,,35.9 mg/kg,,,
"CC(=O)NCC1CN(c2ccc([N+](=O)[O-])cc2[N+](=O)[O-])C(=O)O1 (single isomer, unassigned) [Example 147, (l)-N-[3-(2,4-Dinitrophenyl)-2-oxooxazolidin-5-ylmethyl]acetamide]",,,,,> 200 µg/mL,44.4 mg/kg,200 µg/mL
CC(=O)c1ccc(N2CC(CNC(=O)CN)OC2=O)cc1 (centres unmarked) [Example 176],> 128 µg/mL,32 µg/mL,30.9 mg/kg,11.2 mg/kg,,,
"CC(=O)NCC1CN(c2ccc(NC(C)=O)cc2)C(=O)O1 (single isomer, unassigned) [Example 150, (l)-N-[3-[4-(Acetylamino)phenyl]-2-oxooxazolidin-5-ylmethyl]acetamide]",> 200 µg/mL,200 µg/mL,56.9 mg/kg,12.5 mg/kg,,,
CSc1ccc(N2CC(CNC(=O)CCCl)OC2=O)cc1 (centres unmarked) [Example 92],> 200 µg/mL,50 µg/mL,31 mg/kg,,,,
"CS(=O)(=O)c1ccc(N2CC(CN)OC2=O)cc1 (racemic) [Example 10, (dl)-5-Aminomethyl-3-[4-(methylsulfonyl)phenyl]-2-oxazolidinone trifluoroacetic Acid Salt]",> 100 µg/mL,50 µg/mL,,,,,
CCc1cc(N2CC(CNC(C)=O)OC2=O)ccc1C(C)=O (centres unmarked) [Example 143],> 128 µg/mL,16 µg/mL,20.8 mg/kg,11.9 mg/kg,,,
CS(=O)(=O)c1ccc(N2CC(CNC(=O)c3ccccc3)OC2=O)cc1 (centres unmarked) [Example 34],> 200 µg/mL,25 µg/mL,> 120 mg/kg,49.6 mg/kg,,,

Compound,"MIC (Escherichia coli; Mueller-Hinton broth, 24-hour)","MIC ([2]; Mueller-Hinton broth, 24-hour)",ED50 (Staphylococcus aureus [1]; [4]),ED50 (Staphylococcus aureus [3]),MIC (Escherichia coli; 24 h),ED50 (Staphylococcus aureus [1]),MIC [2]
"CC(=O)NCC1CN(c2ccc(C(=O)C=CN(C)C)cc2)C(=O)O1 (single isomer, unassigned) [Example 162]",> 128 µg/mL,32 µg/mL,11.3 mg/kg,20.9 mg/kg,,,
"CC(=O)c1ccc(N2CC(CN)OC2=O)cc1 (single isomer, unassigned) [Example 170, (l)-3-(4-Acetylphenyl)-5-(aminomethyl)-2-oxazolidinone hydrochloride]",> 128 µg/mL,> 128 µg/mL,32.3 mg/kg,25.3 mg/kg,,,
C[S+]([O-])c1ccc(N2CC(CNC(=O)CCCl)OC2=O)cc1 (centres unmarked) [Example 93],> 200 µg/mL,50 µg/mL,> 120 mg/kg,,,,
"COC(=O)c1ccc(N2CC(CNC(C)=O)OC2=O)cc1 (single isomer, unassigned) [Example 184, (l)-4-[(5-Acetylaminomethyl)-2-oxo-3-oxazolidinyl]benzoic acid methyl ester]",> 128 µg/mL,4 µg/mL,> 60 mg/kg,37.5 mg/kg,,,
CC(=O)NCC1CN(c2ccc(CC(C)O)cc2)C(=O)O1 (centres unmarked) [Example 100],> 200 µg/mL,12.5 µg/mL,19.5 mg/kg,10.5 mg/kg,,,
CC(=O)NCC1CN(c2ccc(C(=O)C3CCCCC3)cc2)C(=O)O1 (centres unmarked) [Example 141],> 128 µg/mL,8 µg/mL,40.2 mg/kg,20.8 mg/kg,,,
COC(=O)NCC1CN(c2ccc(S(=O)(=O)N(C)OC)cc2)C(=O)O1 (centres unmarked) [Example 116],> 200 µg/mL,12.5 µg/mL,25.9 mg/kg,14.9 mg/kg,,,
CC(=O)NCC1CN(c2ccc(C(C)(C)C)cc2)C(=O)O1 (centres unmarked) [Example 105],> 128 µg/mL,1 µg/mL,10.8 mg/kg,13.8 mg/kg,,,
CS(=O)(=O)c1ccc(N2CC(CNC(=O)C(F)(F)F)OC2=O)cc1 (centres unmarked) [Example 28],50 µg/mL,12.5 µg/mL,71.3 mg/kg,,,,
CC(=O)NCC1CN(c2ccc(C#CCO)cc2)C(=O)O1 (centres unmarked) [Example 103],> 50 µg/mL,12.5 µg/mL,,,,,
CNC(=O)NCC1CN(c2ccc(S(C)(=O)=O)cc2)C(=O)O1 (centres unmarked) [Example 35],200 µg/mL,25 µg/mL,35.8 mg/kg,,,,
CS(=O)(=O)c1ccc(N2CC(CNC(=O)C(N)c3ccccc3)OC2=O)cc1 (centres unmarked) [Example 78],> 200 µg/mL,> 200 µg/mL,,67.1 mg/kg,,,
CCOC(OCC)C(=O)NCC1CN(c2ccc(SC)cc2)C(=O)O1 (centres unmarked) [Example 75],> 200 µg/mL,> 200 µg/mL,130 mg/kg,,,,
CS(=O)(=O)c1ccc(N2CC(CNC(N)=O)OC2=O)cc1 (centres unmarked) [Example 77],> 200 µg/mL,200 µg/mL,,70.9 mg/kg,,,
CC(=O)NCC1CN(c2cccc(C(C)=O)c2)C(=O)O1 (centres unmarked) [Example 37],> 200 µg/mL,200 µg/mL,62.9 mg/kg,,,,

# Continued, in another order:
"MIC (Escherichia coli; Mueller-Hinton broth, 24-hour)","MIC ([2]; Mueller-Hinton broth, 24-hour)",Compound,ED50 (Staphylococcus aureus [1]; [4]),ED50 (Staphylococcus aureus [3]),MIC (Escherichia coli; 24 h),ED50 (Staphylococcus aureus [1]),MIC [2]
> 128 µg/mL,64 µg/mL,CC(=O)NCC1CN(c2ccc(CO)cc2)C(=O)O1 (centres unmarked) [Example 106],,,,,
> 200 µg/mL,200 µg/mL,CC(=O)c1ccc(N2CC(CN=[N+]=[N-])OC2=O)cc1 (centres unmarked) [Example 5],172 mg/kg,41.2 mg/kg,,,
> 128 µg/mL,32 µg/mL,CC(=O)NCC1CN(c2ccc(C(O)CO)cc2)C(=O)O1 (centres unmarked) [Example 104],,,,,
> 200 µg/mL,100 µg/mL,COC(=O)NCC1CN(c2ccc(C(F)(F)F)cc2)C(=O)O1 (centres unmarked) [Example 42],45.5 mg/kg,20.9 mg/kg,,,
> 200 µg/mL,3.2 µg/mL,"CC(=O)NCC1CN(c2ccc(SCC#N)cc2)C(=O)O1 (single isomer, unassigned) [Example 154, (l)-N-[3-[4-(Cyanomethylthio)phenyl]-2-oxooxazolidin-5-ylmethyl]acetamide]",,,,,
128 µg/mL,4 µg/mL,C=Cc1ccc(N2CC(CNC(C)=O)OC2=O)cc1 (centres unmarked) [Example 101],10.6 mg/kg,4.8 mg/kg,,,
> 200 µg/mL,> 200 µg/mL,CSc1ccc(N2CC(CN=[N+]=[N-])OC2=O)cc1 (centres unmarked) [Example 4],43.3 mg/kg,,,,
> 200 µg/mL,100 µg/mL,COc1ccc(N2CC(CNC(C)=O)OC2=O)cc1 (centres unmarked) [Example 44],30.3 mg/kg,,,,
> 200 µg/mL,25 µg/mL,CC(=O)Cc1ccc(N2CC(CNC(C)=O)OC2=O)cc1 (centres unmarked) [Example 99],77.4 mg/kg,20.1 mg/kg,,,
> 100 µg/mL,> 100 µg/mL,"NS(=O)(=O)c1ccc(N2CC(CNC=O)OC2=O)cc1 (single isomer, unassigned) [Example 24, (l)-N-[3-[4-(Aminosulfonyl)phenyl]-2-oxooxazolidin-5-ylmethyl]formamide]",74.3 mg/kg,,,,
> 200 µg/mL,100 µg/mL,COC(OC)C(=O)NCC1CN(c2ccc(S(C)(=O)=O)cc2)C(=O)O1 (centres unmarked) [Example 74],96.6 mg/kg,,,,
100 µg/mL,12.5 µg/mL,CCCC(=O)NCC1CN(c2ccc(S(C)(=O)=O)cc2)C(=O)O1 (centres unmarked) [Example 29],88.7 mg/kg,,,,
> 200 µg/mL,50 µg/mL,CCCOC(=O)NCC1CN(c2ccc(S(C)(=O)=O)cc2)C(=O)O1 (centres unmarked) [Example 70],51.7 mg/kg,,,,
> 200 µg/mL,12.5 µg/mL,C=CC(=O)NCC1CN(c2ccc(SC)cc2)C(=O)O1 (centres unmarked) [Example 40],53.1 mg/kg,,,,
> 200 µg/mL,25 µg/mL,C=CC(=O)NCC1CN(c2ccc([S+](C)[O-])cc2)C(=O)O1 (centres unmarked) [Example 91],50.7 mg/kg,,,,
